# Measurements reported in patent US5432274A, “Redox dye and method of preparation thereof using 2-hydroxypropyl-β-cyclodextrin and 1,1'-dimethylferrocene” (National Research Council of Canada, priority 1993, dated 1995).
# Experiments:
# [1] = biological target: T1, glucose oxidase (Aspergillus niger, UniProt P13006); test: Kinetic studies of the blue dye with oxidases (Michaelis-Menten constant); format: biochemical; conditions: compared with lactate oxidase and xanthine oxidase
# T1 construct: purchased Sigma (St. Louis, Mo.)
# T1 sequence (P13006 17-605): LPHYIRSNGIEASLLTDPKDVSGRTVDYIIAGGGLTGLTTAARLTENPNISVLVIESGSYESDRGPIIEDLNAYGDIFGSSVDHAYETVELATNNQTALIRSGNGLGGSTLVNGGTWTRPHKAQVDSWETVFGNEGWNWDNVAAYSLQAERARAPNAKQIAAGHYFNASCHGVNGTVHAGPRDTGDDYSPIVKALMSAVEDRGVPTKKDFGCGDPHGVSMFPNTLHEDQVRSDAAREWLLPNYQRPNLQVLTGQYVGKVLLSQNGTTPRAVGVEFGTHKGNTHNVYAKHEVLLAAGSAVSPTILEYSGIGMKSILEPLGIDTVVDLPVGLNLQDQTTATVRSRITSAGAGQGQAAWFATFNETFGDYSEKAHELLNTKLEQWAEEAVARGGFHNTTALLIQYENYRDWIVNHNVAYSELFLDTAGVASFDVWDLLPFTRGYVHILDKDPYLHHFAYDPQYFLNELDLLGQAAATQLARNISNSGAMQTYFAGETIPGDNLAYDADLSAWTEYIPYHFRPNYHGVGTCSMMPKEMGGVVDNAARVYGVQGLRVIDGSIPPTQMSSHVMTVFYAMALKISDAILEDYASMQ
# [2] = water; cited from earlier work
# [3] = Sensitivity of the dye / its absorption characteristics to pH variation; format: physicochemical; conditions: products of chemical oxidation by ceric sulfate or iodine/KI
# Text: It was also noted that the DMFeCp2 -hp-β-CD complex stored at room temperature began to turn green, indicating a preference toward the oxidized state. As also reported, 15 the redox potential of DMFeCp2 is lowest (100 mV) among several known ferrocene-related compounds and this may contribute to the stability of DMFeCp2^+ in comparison to FeCp2^+. Both forms of ferricinium were insensitive to pH variation from 2-11. This characteristic is of advantage since the assay can be performed regardless of some fluctuation in pH and is applicable for a variety of oxidases with different pH optima. Due to the instability of the concentrated FeCp2^+, further studies focused on the electrochemically produced DMFeCp2^+.
# Both FeCp2 and DMFeCp2 were oxidized by ceric sulfate or iodine/KI to FeCp2 H^+, (ferrocenonium) and DMFeCp2 H^+ (1,1'-dimethylferrocenonium), respectively. The reaction was almost instantaneous and the spectra of these two cation species were identical to those of ferricinium and 1,1'-dimethylferricinium. […] Such results were not completely unexpected since in strong acid media ferrocene was reported to undergo extensive protonation on the metal atom.
# [4] = prepared with soluble bilirubin oxidase, stored at 4° C.
Compound,solubility of the cyclodextrin in aqueous solutions [2],stability against changes in pH [3],other results
"1,1'-dimethylferricinium [DMFeCp2^+]",–,–,Michaelis-Menten constant for the blue dye [1]: noticeably higher
2-hydroxypropyl-β-cyclodextrin [Hp-β-CD],50 % w/v,–,–
"CC1C=CC=C1.C[c-]1cccc1.[Fe+2] [DMFeCp2 H^+, 1,1'-dimethylferrocenonium]",–,not stable against changes in pH,–
"OC[C@H]1O[C@@H]2O[C@H]3[C@H](O)[C@@H](O)[C@@H](O[C@H]4[C@H](O)[C@@H](O)[C@@H](O[C@H]5[C@H](O)[C@@H](O)[C@@H](O[C@H]6[C@H](O)[C@@H](O)[C@@H](O[C@H]7[C@H](O)[C@@H](O)[C@@H](O[C@H]1[C@H](O)[C@H]2O)O[C@@H]7CO)O[C@@H]6CO)O[C@@H]5CO)O[C@@H]4CO)O[C@@H]3CO [α-CD, α-cyclodextrin]",12-16 % w/v,–,–
ferricinium [FeCp2^+],–,–,time stable [4]: 2 months
ferrocenonium [FeCp2 H^+],–,not stable against changes in pH,–
